Assay results taken from PubChem BioAssay (NCI).
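The compound was tested at five concentrations on cells cultured in 96-well plates, with a 48-hour exposure period. GI50: concentration for 50% inhibition of growth. TGI is the concentration that stops growth completely.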

How the values were obtained:
Test in all cases: NCI-60 cell line screen, 48 h
786-0 renal = test system: 786-0 renal
A549 NSCLC = test system: A549 NSCLC
ACHN renal = test system: ACHN renal
CCRF-CEM leukemia = test system: CCRF-CEM leukemia
COLO 205 colon = test system: COLO 205 colon
DLD-1 colon = test system: DLD-1 colon
DMS 114 small cell lung = test system: DMS 114 small cell lung
DMS 273 small cell lung = test system: DMS 273 small cell lung
EKVX NSCLC = test system: EKVX NSCLC
HCC-2998 colon = test system: HCC-2998 colon
HCT-116 colon = test system: HCT-116 colon
HCT-15 colon = test system: HCT-15 colon
HL-60(TB) leukemia = test system: HL-60(TB) leukemia
HOP-62 NSCLC = test system: HOP-62 NSCLC
HOP-92 NSCLC = test system: HOP-92 NSCLC
HT29 colon = test system: HT29 colon
IGROV1 ovarian = test system: IGROV1 ovarian
K-562 leukemia = test system: K-562 leukemia
KM12 colon = test system: KM12 colon
KM20L2 colon = test system: KM20L2 colon
LOX IMVI melanoma = test system: LOX IMVI melanoma
M14 melanoma = test system: M14 melanoma
M19-MEL melanoma = test system: M19-MEL melanoma
MALME-3M melanoma = test system: MALME-3M melanoma
MOLT-4 leukemia = test system: MOLT-4 leukemia
NCI-H23 lung = test system: NCI-H23 lung
NCI-H460 lung = test system: NCI-H460 lung
NCI-H522 lung = test system: NCI-H522 lung
OVCAR-3 ovarian = test system: OVCAR-3 ovarian
OVCAR-4 ovarian = test system: OVCAR-4 ovarian
OVCAR-5 ovarian = test system: OVCAR-5 ovarian
OVCAR-8 ovarian = test system: OVCAR-8 ovarian
RPMI-8226 leukemia = test system: RPMI-8226 leukemia
RXF 393 renal = test system: RXF 393 renal
SF-268 CNS = test system: SF-268 CNS
SF-295 CNS = test system: SF-295 CNS
SF-539 CNS = test system: SF-539 CNS
SK-MEL-2 melanoma = test system: SK-MEL-2 melanoma
SK-MEL-28 melanoma = test system: SK-MEL-28 melanoma
SK-MEL-5 melanoma = test system: SK-MEL-5 melanoma
SN12C renal = test system: SN12C renal
SNB-19 CNS = test system: SNB-19 CNS
SNB-75 CNS = test system: SNB-75 CNS
SW-620 colon = test system: SW-620 colon
TK-10 renal = test system: TK-10 renal
U251 CNS = test system: U251 CNS
UACC-257 melanoma = test system: UACC-257 melanoma
UACC-62 melanoma = test system: UACC-62 melanoma
UO-31 renal = test system: UO-31 renal
XF 498 CNS = test system: XF 498 CNS
A498 renal = test system: A498 renal
CAKI-1 renal = test system: CAKI-1 renal
DU-145 prostate = test system: DU-145 prostate
MCF7 breast = test system: MCF7 breast
MDA-MB-231 breast = test system: MDA-MB-231 breast
NCI-H226 lung = test system: NCI-H226 lung
SK-OV-3 ovarian = test system: SK-OV-3 ovarian
SR leukemia = test system: SR leukemia
T-47D breast = test system: T-47D breast
HOP-18 NSCLC = test system: HOP-18 NSCLC
LXFL 529 NSCLC = test system: LXFL 529 NSCLC
SNB-78 CNS = test system: SNB-78 CNS

## C#CN1C(=O)c2c(c(-c3ccccc3)c(-c3ccc(Oc4ccc(-c5c(-c6ccccc6)c6c(c(-c7ccccc7)c5-c5ccccc5)C(=O)N(C#C)C6=O)cc4)cc3)c(-c3ccccc3)c2-c2ccccc2)C1=O
786-0 renal
  TGI: > 100 µM
A549 NSCLC
  TGI: > 100 µM
ACHN renal
  TGI: > 100 µM
CCRF-CEM leukemia
  TGI: > 100 µM
COLO 205 colon
  TGI: > 100 µM
DLD-1 colon
  TGI: > 100 µM
DMS 114 small cell lung
  TGI: > 100 µM
DMS 273 small cell lung
  TGI: > 100 µM
EKVX NSCLC
  TGI: > 100 µM
HCC-2998 colon
  TGI: > 100 µM
HCT-116 colon
  TGI: > 100 µM
HCT-15 colon
  TGI: > 100 µM
HL-60(TB) leukemia
  TGI: > 100 µM
HOP-62 NSCLC
  TGI: > 100 µM
HOP-92 NSCLC
  TGI: > 100 µM
HT29 colon
  TGI: > 100 µM
IGROV1 ovarian
  TGI: > 100 µM
K-562 leukemia
  TGI: > 100 µM
KM12 colon
  TGI: > 100 µM
KM20L2 colon
  TGI: > 100 µM
LOX IMVI melanoma
  TGI: > 100 µM
M14 melanoma
  TGI: > 100 µM
M19-MEL melanoma
  TGI: > 100 µM
MALME-3M melanoma
  TGI: > 100 µM
MOLT-4 leukemia
  TGI: > 100 µM
NCI-H23 lung
  TGI: > 100 µM
NCI-H460 lung
  TGI: > 100 µM
NCI-H522 lung
  TGI: > 100 µM
OVCAR-3 ovarian
  TGI: > 100 µM
OVCAR-4 ovarian
  TGI: > 100 µM
OVCAR-5 ovarian
  TGI: > 100 µM
OVCAR-8 ovarian
  TGI: > 100 µM
RPMI-8226 leukemia
  TGI: > 100 µM
RXF 393 renal
  TGI: > 100 µM
SF-268 CNS
  TGI: > 100 µM
SF-295 CNS
  TGI: > 100 µM
SF-539 CNS
  TGI: > 100 µM
SK-MEL-2 melanoma
  TGI: > 100 µM
SK-MEL-28 melanoma
  TGI: > 100 µM
SK-MEL-5 melanoma
  TGI: > 100 µM
SN12C renal
  TGI: > 100 µM
SNB-19 CNS
  TGI: > 100 µM
SNB-75 CNS
  TGI: > 100 µM
SW-620 colon
  TGI: > 100 µM
TK-10 renal
  TGI: > 100 µM
U251 CNS
  TGI: > 100 µM
UACC-257 melanoma
  TGI: > 100 µM
UACC-62 melanoma
  TGI: > 100 µM
UO-31 renal
  TGI: > 100 µM
XF 498 CNS
  TGI: 72.8 µM

## CCCCCC(=O)OC[n+]1ccc2c(C)c3[nH]c4ccc(OC)cc4c3c(C)c2c1
786-0 renal
  TGI: 1.51 µM
A498 renal
  TGI: 2.17 µM
A549 NSCLC
  TGI: 13.7 µM
ACHN renal
  TGI: 4.78 µM
CAKI-1 renal
  TGI: > 23 µM
DU-145 prostate
  TGI: 3.19 µM
HOP-62 NSCLC
  TGI: 2.28 µM
IGROV1 ovarian
  TGI: 3.71 µM
KM20L2 colon
  TGI: > 100 µM
MALME-3M melanoma
  TGI: > 63.6 µM
MCF7 breast
  TGI: 1.96 µM
MDA-MB-231 breast
  TGI: 1.83 µM
MOLT-4 leukemia
  TGI: > 100 µM
NCI-H226 lung
  TGI: 31 µM
NCI-H460 lung
  TGI: 1.04 µM
NCI-H522 lung
  TGI: > 100 µM
OVCAR-3 ovarian
  TGI: > 100 µM
OVCAR-5 ovarian
  TGI: 2.24 µM
SF-268 CNS
  TGI: > 100 µM
SF-295 CNS
  TGI: 1.72 µM
SF-539 CNS
  TGI: 1.17 µM
SK-MEL-2 melanoma
  TGI: > 100 µM
SK-MEL-5 melanoma
  TGI: > 100 µM
SK-OV-3 ovarian
  TGI: 3.03 µM
SR leukemia
  TGI: > 100 µM
T-47D breast
  TGI: 13.1 µM
TK-10 renal
  TGI: 9.74 µM
UACC-62 melanoma
  TGI: 3.31 µM
UO-31 renal
  TGI: 3.31 µM

## CC(=O)OC(C(=O)[O][Ge]([CH3])([CH3])[CH3])c1ccccc1 (stereo not given)
786-0 renal
  GI50: > 100 µM
  TGI: > 100 µM
A498 renal
  GI50: > 100 µM
  TGI: > 100 µM
A549 NSCLC
  GI50: > 100 µM
  TGI: > 100 µM
ACHN renal
  GI50: > 100 µM
  TGI: > 100 µM
CAKI-1 renal
  GI50: > 100 µM
  TGI: > 100 µM
COLO 205 colon
  GI50: > 100 µM
  TGI: > 100 µM
DLD-1 colon
  GI50: > 100 µM
  TGI: > 100 µM
DMS 114 small cell lung
  GI50: > 100 µM
  TGI: > 100 µM
EKVX NSCLC
  GI50: > 100 µM
  TGI: > 100 µM
HCC-2998 colon
  GI50: > 100 µM
  TGI: > 100 µM
HCT-116 colon
  GI50: > 100 µM
  TGI: > 100 µM
HCT-15 colon
  GI50: > 100 µM
  TGI: > 100 µM
HL-60(TB) leukemia
  TGI: > 100 µM
HOP-18 NSCLC
  GI50: > 100 µM
  TGI: > 100 µM
HOP-62 NSCLC
  GI50: > 100 µM
  TGI: > 100 µM
HOP-92 NSCLC
  GI50: > 100 µM
  TGI: > 100 µM
HT29 colon
  GI50: > 100 µM
  TGI: > 100 µM
IGROV1 ovarian
  GI50: > 100 µM
  TGI: > 100 µM
K-562 leukemia
  GI50: > 100 µM
  TGI: > 100 µM
KM12 colon
  GI50: > 100 µM
  TGI: > 100 µM
KM20L2 colon
  GI50: > 100 µM
  TGI: > 100 µM
LOX IMVI melanoma
  GI50: > 100 µM
  TGI: > 100 µM
LXFL 529 NSCLC
  GI50: > 100 µM
  TGI: > 100 µM
M14 melanoma
  GI50: > 100 µM
  TGI: > 100 µM
M19-MEL melanoma
  GI50: > 100 µM
  TGI: > 100 µM
MALME-3M melanoma
  GI50: > 100 µM
  TGI: > 100 µM
NCI-H226 lung
  GI50: > 100 µM
  TGI: > 100 µM
NCI-H23 lung
  GI50: > 100 µM
  TGI: > 100 µM
NCI-H460 lung
  GI50: > 100 µM
  TGI: > 100 µM
NCI-H522 lung
  GI50: > 100 µM
  TGI: > 100 µM
OVCAR-3 ovarian
  GI50: > 100 µM
  TGI: > 100 µM
OVCAR-4 ovarian
  GI50: > 100 µM
  TGI: > 100 µM
OVCAR-5 ovarian
  GI50: > 100 µM
  TGI: > 100 µM
OVCAR-8 ovarian
  GI50: > 100 µM
  TGI: > 100 µM
RXF 393 renal
  GI50: 0.264 µM
  TGI: 7.09 µM
SF-268 CNS
  GI50: > 100 µM
  TGI: > 100 µM
SF-295 CNS
  GI50: > 100 µM
  TGI: > 100 µM
SF-539 CNS
  GI50: > 100 µM
  TGI: > 100 µM
SK-MEL-28 melanoma
  GI50: > 100 µM
  TGI: > 100 µM
SK-MEL-5 melanoma
  GI50: > 100 µM
  TGI: > 100 µM
SK-OV-3 ovarian
  GI50: > 100 µM
  TGI: > 100 µM
SN12C renal
  GI50: > 100 µM
  TGI: > 100 µM
SNB-19 CNS
  GI50: > 100 µM
  TGI: > 100 µM
SNB-75 CNS
  GI50: > 100 µM
  TGI: > 100 µM
SNB-78 CNS
  GI50: > 100 µM
  TGI: > 100 µM
SW-620 colon
  GI50: > 100 µM
  TGI: > 100 µM
TK-10 renal
  GI50: > 100 µM
  TGI: > 100 µM
U251 CNS
  GI50: > 100 µM
  TGI: > 100 µM
UACC-257 melanoma
  GI50: > 100 µM
  TGI: > 100 µM
UACC-62 melanoma
  GI50: > 100 µM
  TGI: > 100 µM
UO-31 renal
  GI50: > 100 µM
  TGI: > 100 µM
